Experimental data: patent US20100069384A1, “5-ALKYLOXY-INDOLIN-2-ONE DERIVATIVES, PREPARATION THEREOF AND APPLICATION THEREOF IN THERAPY” (SANOFI-AVENTIS, priority 2006, published 2010)
Where a name gives a salt, the structure may show the parent alone.

CCOc1ccc2c(c1)C(C)(c1cc(C(=O)NCCN)ccc1Cl)C(=O)N2S(=O)(=O)c1ccc(C(=O)NC(C)(C)C)cc1OC (stereo not drawn) (as salt: hydrochloride) [Example 47, N-tert-Butyl-4-{3-[2-chloro-5-(2-aminoethylamino-carbonyl)-phenyl]-5-ethoxy-3-methyl-2-oxo-2,3-dihydro-indole-1-sulphonyl}-3-methoxy-benzamide]
melting point: 204 °C

CCOc1ccc2c(c1)C(C)(c1ccccc1Cl)C(=O)N2S(=O)(=O)c1ccc(C(=O)NC(C)(C)CC)cc1 (stereo not drawn) [Example 4, 4-[3-(2-Chloro-phenyl)-5-ethoxy-3-methyl-2-oxo-2,3-dihydro-indole-1-sulphonyl]-N-(1,1-dimethyl-propyl)-benzamide]
melting point: 138 °C

CCOc1ccc2c(c1)C(C)(c1cc(C(=O)O)ccc1Cl)C(=O)N2S(=O)(=O)c1ccc(C(=O)NC(C)(C)C)cc1OC (stereo not drawn) [Example 19, 3-[1-(4-tert-Butylcarbamoyl-2-methoxy-benzenesulphonyl)-5-ethoxy-3-methyl-2-oxo-2,3-dihydro-1H-indol-3-yl]-4-chloro-benzoic acid]
melting point: 200 °C

CCOc1ccc2c(c1)C(C)(c1cc(C(=O)N3CC4CCN(C)C4C3)ccc1Cl)C(=O)N2S(=O)(=O)c1ccc(C(=O)NC(C)(C)C)cc1OC (stereo not drawn) [Example 46, N-tert-Butyl-4-{3-[2-chloro-5-(1-methyl-hexahydro-pyrrolo[3,4-b]pyrrole-5-carbonyl)-phenyl]-5-ethoxy-3-methyl-2-oxo-2,3-dihydro-indole-1-sulphonyl}-3-methoxy-benzamide]
melting point: 130 °C

CCOc1ccc2c(c1)C(C)(c1cc(C(=O)O)ccc1Cl)C(=O)N2S(=O)(=O)c1ccc(C(=O)NC(C)(C)C)cc1 (stereo not drawn) [Example 48, 3-[1-(4-tert-Butylcarbamoyl-benzenesulphonyl)-5-ethoxy-3-methyl-2-oxo-2,3-dihydro-1H-indol-3-yl]-4-chloro-benzoic acid]
melting point: 188 °C

CCOc1ccc2c(c1)C(C)(c1cc(N)ccc1Cl)C(=O)N2S(=O)(=O)c1ccc(C(=O)NC(C)(C)C)cc1OC (stereo not drawn) [Example 55, 4-[3-(5-Amino-2-chloro-phenyl)-5-ethoxy-3-methyl-2-oxo-2,3-dihydro-indole-1-sulphonyl]-N-tert-butyl-3-methoxy-benzamide]
melting point: 166 °C

CCOc1ccc2c(c1)C(C)(c1ccccc1)C(=O)N2S(=O)(=O)c1ccc(C(=O)NC(C)(C)C)cc1 (stereo not drawn) [Example 98, N-tert-butyl-4-[3-methyl-3-phenyl-5-ethoxy-2-oxo-2,3-dihydroindole-1-sulphonyl]-benzamide]
melting point: 89 °C

CCOc1ccc2c(c1)C(C)(c1ccccc1F)C(=O)N2S(=O)(=O)c1ccc(C(=O)NC(C)(C)C)cc1 (stereo not drawn) [Example 101, N-tert-butyl-4-[3-methyl-3-(2-fluorophenyl)-5-ethoxy-2-oxo-2,3-dihydroindole-1-sulphonyl]benzamide]
melting point: 116 °C

CCOc1ccc2c(c1)C(C)(c1cccc(OC)c1)C(=O)N2S(=O)(=O)c1ccc(C(=O)NC(C)(C)C)cc1 (stereo not drawn) [Example 103, N-tert-butyl-4-[3-(3-methoxyphenyl)-5-ethoxy-3-methyl-2-oxo-2,3-dihydroindole-1-sulphonyl]benzamide]
melting point: 101 °C

CCOc1ccc2c(c1)C(C)(c1c(F)cccc1Cl)C(=O)N2S(=O)(=O)c1ccc(C(=O)NC(C)(C)C)cc1 (stereo not drawn) [Example 125, N-tert-butyl-4-[3-methyl-3-(2-chloro-6-fluorophenyl)-5-ethoxy-2-oxo-2,3-dihydro-indole-1-sulphonyl]benzamide]
melting point: 128 °C

CC(C)(C)NC(=O)c1ccc(S(=O)(=O)N2C(=O)C(C)(c3ccccc3Cl)c3cc(OCC(F)(F)F)ccc32)cc1 (stereo not drawn) [Example 143, N-tert-Butyl-4-[3-(2-chlorophenyl)-3-methyl-2-oxo-5-(2,2,2-trifluoroethoxy)-2,3-di-hydroindole-1-sulphonyl]benzamide]
melting point: 134 °C

CCOc1ccc2c(c1)C(C)(c1cccc(OCCCN(C)C)c1)C(=O)N2S(=O)(=O)c1ccc(C(=O)NC(C)(C)C)cc1 (stereo not drawn) [Example 145, N-tert-Butyl-4-{3-[3-(3-dimethylaminopropoxy)phenyl]-5-ethoxy-3-methyl-2-oxo-2,3-dihydroindole-1-sulphonyl}benzamide]
melting point: 86 °C
